In patent US7834194B2, “Cycloalkyl lactam derivatives as inhibitors of 11-beta-hydroxysteroid dehydrogenase 1” (Eli Lilly and Company, priority 2004, dated 2010):
pIC50: −log10 of the molar value.

Target: recombinant human 11β-HSD type 1 enzyme (Homo sapiens, UniProt P28845)
Assay: 11β-HSD type 1 enzyme assay (NADPH production by fluorescence)
Format: biochemical
Conditions: three hour incubation at room temperature
Description: 11β-HSD Type 1 Enzyme Assay
Human 11β-HSD type 1 activity is measured by assaying NADPH production by fluorescence assay. Solid compounds are dissolved in DMSO to a concentration of 10 mM. Twenty microliters of each are then transferred to a column of a 96-well polypropylene Nunc plate where they are further diluted 50-fold followed by subsequent two-fold titration, ten times across the plate with additional DMSO using a Tecan Genesis 200 automated system. Plates are then transferred to a Tecan Freedom 200 system with an attached Tecan Temo 96-well head and an Ultra 384 plate reader. Reagents are supplied in 96-well polypropylene Nunc plates and are dispensed individually into black 96-well Molecular Devices High Efficiency assay plates (40 μL/well capacity) in the following fashion: 9 μL/well of substrate (2.22 mM NADP, 55.5 μM Cortisol, 10 mM Tris, 0.25% Prionex, 0.1% Triton X100), 3 μL/well of water to compound wells or 3 μL to control and standard wells, 6 μL/well recombinant human 11β-HSD type 1 enzyme, 2 μL/well of compound dilutions. For ultimate calculation of percent inhibition, a series of wells are added that represent assay minimum and maximum: one set containing substrate with 667 μM carbenoxolone (background), and another set containing substrate and enzyme without compound (maximum signal). Final DMSO concentration is 0.5% for all compounds, controls and standards. Plates are then placed on a shaker by the robotic arm of the Tecan for 15 seconds before being covered and stacked for a three hour incubation period at room temperature. Upon completion of this incubation, the Tecan robotic arm removes each plate individually from the stacker and places them in position for addition of 5 μL/well of a 250 μM carbenoxolone solution to stop the enzymatic reaction. Plates are then shaken once more for 15 seconds then placed into an Ultra 384 microplate reader (355EX/460EM) for detection of NADPH fluorescence.

Chain of recombinant human 11β-HSD type 1 enzyme (P28845 whole entry): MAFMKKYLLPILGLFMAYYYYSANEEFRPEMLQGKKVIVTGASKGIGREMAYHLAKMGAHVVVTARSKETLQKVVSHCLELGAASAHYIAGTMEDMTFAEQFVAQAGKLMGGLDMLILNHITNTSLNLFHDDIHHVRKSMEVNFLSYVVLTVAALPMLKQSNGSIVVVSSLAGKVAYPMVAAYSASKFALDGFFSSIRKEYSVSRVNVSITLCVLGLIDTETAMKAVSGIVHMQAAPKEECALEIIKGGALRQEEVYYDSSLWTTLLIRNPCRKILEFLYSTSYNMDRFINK

Structure (SMILES) | pIC50
O=C1C(Cc2cc3ccccc3o2)CCN1C1CCCCC1 (stereo not shown) | 6.17
COc1ccc2c(Cl)c(CC3CCN(C4CCCCC4)C3=O)sc2c1 (stereo not shown) | 6.29
O=C(O)c1ccc(-c2ccc3sc(CC4CCN(C5CCCCC5)C4=O)cc3c2)cc1 (stereo not shown) | 6.37

Stronger by pIC50, values ahead:

pIC50 | Structure (SMILES)
6.72 | O=C1C(Cc2cc3ccccc3s2)CCN1C1CCCCC1 (stereo not shown)
6.79 | O=C1C(Cc2sc3cc4c(cc3c2Cl)OCO4)CCN1C1CCCCC1 (stereo not shown)
6.59 | O=C1C(Cc2cc3cc(-c4ccnc(F)c4)ccc3s2)CCN1C1CCCCC1 (stereo not shown)
6.56 | O=C1C(Cc2sc3ccccc3c2Cl)CCCN1C1CCC(O)CC1 (stereo not shown)
